In brackets after ≈: the same amount, converted by molar mass. Read-outs that look alike come from different tables or passages of the source.
Assays:
[1] = Oral PK and PK modeling of KAE609 in NMRI mice; format: in vivo, female NMRI mice; conditions: for AUC(0-inf) / Cmax: NMRI, 5.3 mg/kg, single oral dose 5.3 mg/kg
Method: For the in vivo PK studies, female NMRI mice (specific pathogen free) were obtained from Janvier, Le Genest-Saint-Isle, France. To investigate the influence of the disease status on the pharmacokinetics, a single oral dose (5.3 mg/kg) of KAE609 was given to both the infected and uninfected NMRI mice, and the PK parameters were determined. The infected mice were dosed at 24 h postinfection. The formulation, sampling times (0.25, 0.5, 1, 2, 4, 8, 24, and 48 h postdose), extraction, and analysis were similar to those in the method described above.
Population PK modeling of the concentration-time data of KAE609 in mice was performed using naive pooling without intersubject variability using NONMEM version VI 2.0. A two-compartment pharmacokinetic model with first-order absorption and nonlinear elimination was built to fit the concentration-time data of KAE609 generated in (infected and healthy) NMRI mice at 5.3 mg/kg. In the model, clearance (CL) was described by equation 2, where Cp is compound plasma concentration, the maximum metabolic rate (Vmax)/Km ratio is the maximal clearance achievable when Cp is ≪Km, and Km corresponds to the compound concentration at which the clearance reached 50% of the Vmax/Km. The primary model parameters derived were plasma clearance (CL) (in liters/h/kg), intercompartmental clearance (Q) (in liters/h/kg), central and peripheral volume of distribution (Vc and Vp, respectively) (in liters/kg), and the absorption rate constant (Ka) (in h^−1). The diagnostic plots were analyzed for closeness to and randomness along the line of identity on the observed versus predicted concentration plot, as well as randomness along the weighted residual zero line on the predicted concentration or time. […] Based on the estimated primary model parameters (Vmax, Km, Vc, Vp, Q, and Ka), the plasma concentration-time profiles and secondary pharmacokinetic parameters, such as Cmax, AUC at different doses, and dosing regimens, were simulated using the Berkeley Madonna software (version 8.0.1) (Berkeley Madonna, University of California, Berkeley, CA. 2 CL=Vmax/(Km+Cp)

[2] = HT-equilibrium solubility; format: physicochemical; conditions: aqueous buffer, thermodynamic from solid; pH 6.8, HT-equilibrium solubility
Source text: page 5: Running title: PreclinicalPK -PD of antimalarials 73 to high through put form at using in- house standard assa y protocols that are described in the 74 literature. […] 81 82 83 84 85 86 87 88 89 90 91 92 93 94 95 96 97 98 5

Caco-2 permeability = format: in vitro ADME; conditions: human, Caco-2; apical to basolateral
Source text: page 5: Running title: PreclinicalPK -PD of antimalarials 73 to high through put form at using in- house standard assa y protocols that are described in the 74 literature. 75 (a)HT-Equilibrium solubilit y at pH 6.8( 1); (b)Parallel Artificial Membrane P ermeability Assa y 76 expressed in % fraction absorbed (FA) ( 2,3 ); (c)Apparent permeability from apical to […] 78 tested; (d)intrinsic clearance in mouse liver micro somes ex pressed as µ L/ min/mg protein, in 79 the presen ce of liver enzym es ( 6); (e)Mous e plasm a protein binding using rapid equilibrium […] 81 82 83 84 85 86 87 88 89 90 91 92 93 94 95 96 97 98 5

[3] = In vivo PK after single p.o. and i.v. dosing in CD-1 mice; parameters: species or system female CD-1 mice; conditions: for AUC(0-t): read-out: AUC0–24; for Cmax: read-out: Cmax; for Tmax: read-out: Tmax
Method: The Institutional Animal Care and Use Committee (IACUC) of the Novartis Institute for Tropical Diseases (NITD), registered with the Agri-Food and Veterinary authority (AVA), Government of Singapore, reviewed and approved all animal experimental protocols. […] The mice were allowed to acclimate before the initiation of the experiments. Feed and water were given ad libitum. […] The blood samples from the mice were collected at 0.02 (for i.v. only), 0.08, 0.25, 0.5, 1, 2, 4, 8, 16, and 24 h postdosing. The dose proportionality studies were conducted with KAE609. […] Additional samples were collected at 32 h and 48 h postdose for the 1- and 5-mg/kg dose groups and up to 72 h postdose for the 100-mg/kg dose group. Groups of three mice were used for each time point. Blood was centrifuged at 13,000 rpm for 7 min at 4°C, and plasma was harvested and stored at -20°C until analysis. […] After vortexing and centrifuging the mixture, the supernatant was removed and 5 μl of sample analyzed. Analyte quantitation was performed by high-performance liquid chromatography coupled with tandem mass spectrometry (LC-MS/MS). […] Instrument control and data acquisition were performed using the Applied Biosystems software Analyst 1.4.2. […] Multiple-reaction monitoring (MRM) was combined with optimized MS parameters to maximize detection specificity and sensitivity. The most intense MRM transitions [338.3/295.1 for (+)-1, 370.1/327.0 for (+)-2, 370.0/326.9 for (+)-3, 354.1/310.8 for (+)-4, 354.1/311.2 for (+)-5, 372.1/329.1 for (+)-6, 388.0/331.8 for (+)-7, 372.1/316.1 for (-)-6, and 388/332 for (-)-7] were used for quantitation. Most compounds were analyzed using electrospray ionization in the negative mode, except (+)-1, which was analyzed using positive mode. The recovery of the compounds from plasma was good and consistent across the concentration range studied. The lower limits of quantification for different compounds ranged from 1.3 to 70 ng/ml in plasma. A calibration curve was freshly prepared and analyzed with every set of study samples. Intraday variability was established with triplicate quality control samples at three concentration levels. The results were accepted if relative standard deviation was <15%. The mean values of the compound concentrations in plasma were obtained from three animals at each time point and plotted against time to generate concentration-time profiles. […] The oral bioavailability (F) was calculated as the ratio between the area under the concentration-time curve from 0 to infinity (AUC0-∞) following oral administration and the AUC0-∞ following intravenous administration corrected for dose (F = […].).

[4] = test system: P. vivax and P. falciparum; conditions: cited from earlier work
[5] = female, mouse, plasma, po, infected NMRI mice
[6] = female, mouse, plasma, po, uninfected NMRI mice
[7] = two-compartment model, NMRI mice 5.3 mg/kg p.o.
[8] = female, mouse, plasma, oral 1.5 mg/kg, CD-1 mice, HCl/Solutol HS15/citrate pH 3 formulation
[9] = female, mouse, plasma, oral 5.6 mg/kg, CD-1 mice, HCl/Solutol HS15/citrate pH 3 formulation
[10] = female, mouse, plasma, oral 105 mg/kg, CD-1 mice, HCl/Solutol HS15/citrate pH 3 formulation
[11] = female, mouse, plasma, single oral dose 25 mg/kg, CD-1 mice
[12] = oral 1.5–105 mg/kg, CD-1 mouse, power regression model
[13] = patients, 30 mg daily for 3 days

In the case of C[C@H]1Cc2c([nH]c3cc(Cl)c(F)cc23)[C@@]2(N1)C(=O)Nc1ccc(Cl)cc12 [(+)-7 (KAE609)], the “Fold higher Cmax and exposure in NMRI mice than in CD-1 mice” value ([1]; comparable oral dose (5 mg/kg)) is reported as 4 fold, the AUC(0-inf) [1, 5] is reported as 12600 ng·h/mL and the Cmax [1, 5] is reported as 960 ng/mL. The AUC(0-inf) [1, 6] was 13200 ng·h/mL, the Cmax [1, 6] was 1010 ng/mL and the Km ([1]; female, mouse, plasma, po, two-compartment model, nonlinear elimination, NMRI mice 5.3 mg/kg p.o.) was 0.0341 µg/mL. The “Difference in PK profiles between infected and uninfected NMRI mice” value ([1]; oral 5.3 mg/kg) was “No significant difference”, the “Ka (absorption rate constant)” value [1, 7] was 1.78 h⁻¹ and the “Q (intercompartmental clearance)” value [1, 7] was 10.2 mL/min/kg. The “Vc (central volume of distribution)” value [1, 7] was 4.4 L/kg, the “Vp (peripheral volume of distribution)” value [1, 7] was 5.1 L/kg and the Vmax ([1]; two-compartment model, nonlinear elimination, NMRI mice 5.3 mg/kg p.o.) was 143 µg/h/kg. For the same compound, the Solubility [2] was 39 µM (≈ 15.2 µg/mL), the Papp A→B (Caco-2 permeability) was 1.69 ×10⁻⁶ cm/s and the Vd ([3]; female, mouse, plasma, iv, i.v. 5 mg/kg, CD-1 mice, read-out: Vss) was 2.1 L/kg. It also gave a half-life ([3]; female, mouse, plasma, iv, i.v. 5 mg/kg, CD-1 mice, read-out: t1/2 (i.v.) (converted)) of 3.4 h, an AUC(0-t) [3, 8] of 1000 ng·h/mL and a Cmax [3, 8] of 100 ng/mL. The bioavailability ([3]; female, mouse, plasma, oral 1.5 mg/kg, CD-1 mice, HCl/Solutol HS15/citrate pH 3 formulation, read-out: F) was 44%, the Tmax [3, 8] was 1 h and the half-life ([3]; female, mouse, plasma, oral 1.5 mg/kg, CD-1 mice, HCl/Solutol HS15/citrate pH 3 formulation, read-out: t1/2 (oral) (converted)) was 8.7 h. For the same compound, the AUC(0-t) [3, 9] was 2600 ng·h/mL, the Cmax [3, 9] was 250 ng/mL and the bioavailability ([3]; female, mouse, plasma, oral 5.6 mg/kg, CD-1 mice, HCl/Solutol HS15/citrate pH 3 formulation, read-out: F) was 32%. The Tmax [3, 9] was 2 h, the half-life ([3]; female, mouse, plasma, oral 5.6 mg/kg, CD-1 mice, HCl/Solutol HS15/citrate pH 3 formulation, read-out: t1/2 (oral) (converted)) was 7.5 h and the bioavailability ([3]; female, mouse, plasma, oral 25 mg/kg vs i.v. 5 mg/kg, CD-1 mice, read-out: F (oral bioavailability)) was 100%. It also gave an AUC(0-t) [3, 10] of 187000 ng·h/mL, a Cmax [3, 10] of 10800 ng/mL and a bioavailability ([3]; female, mouse, plasma, oral 105 mg/kg, CD-1 mice, HCl/Solutol HS15/citrate pH 3 formulation, read-out: F) of 100%. It also gave a Tmax [3, 10] of 24 h, a half-life ([3]; female, mouse, plasma, oral 105 mg/kg, CD-1 mice, HCl/Solutol HS15/citrate pH 3 formulation, read-out: t1/2 (oral) (converted)) of 9.4 h and an AUC(0-t) [3, 11] of 43300 ng·h/mL. For the same compound, the Tmax [3, 11] was 1 h, the half-life ([3]; female, mouse, plasma, single oral dose 25 mg/kg, CD-1 mice, read-out: t1/2 (oral) (converted)) was 10 h and the Cmax ([3]; female, mouse, single oral dose 25 mg/kg, CD-1 mice, plasma) was 3600 ng/mL. For the same compound, the CL ([3]; i.v. 5 mg/kg, CD-1 mice) was 9.7 mL/min/kg, the Dose linearity ([3]; oral 1.5–105 mg/kg, CD-1 mouse) was “nonlinear behavior” and the “Slope, log dose vs log AUC0-24 (dose proportionality)” value [3, 12] was 1.30. For the same compound, the “Slope, log dose vs log Cmax (dose proportionality)” value [3, 12] was 1.18, the Clinical outcome ([4]; 3-day dosing regimen of 30 mg daily, P. vivax and P. falciparum malaria patients) was “clearing parasitemia” and the “AUC (average of two cohorts)” value [4, 13] was 14,300 ng · h/ml. For the same compound, the “Cmax (average of two cohorts)” value [4, 13] was 855 ng/mL.

Reference: article PMC4335872, “Pharmacokinetic-Pharmacodynamic Analysis of Spiroindolone Analogs and KAE609 in a Murine Malaria Model” (Antimicrobial Agents and Chemotherapy, 2015)
